Measured values from PubChem BioAssay AID214 (DTP/NCI, 2004).
Several values for one entry are separate records, joined by “and”; a condition that tells them apart may be missing. Identical values can stand only once. Inconclusive results are not listed.

Tested on: B6C3F1 mice, colon carcinoma 38 s.c., T/C
Assay: NCI In Vivo Anticancer Drug Screen. Data for tumor model Colon Carcinoma 38 (subcutaneous) in B6C3F1 mice
Conditions: endpoint: median tumor weight (est.), schedule: Q07DX002 (ip), higher = larger tumour
Experimental: The antitumor activity of compounds was measured in mice bearing transplantable tumors. Survival or tumor size were measured and the results are expressed as the measurement made in the treated group (T) divided by the measurement made in the vehicle treated control group (C). The tumor model used in this assay is Colon Carcinoma 38 (subcutaneous) in B6C3F1 mice

[1] = dose: 50.0 mg/kg/injection, vehicle: water
[2] = dose: 12.5 mg/kg/injection, vehicle: saline
[3] = dose: 25.0 mg/kg/injection, vehicle: saline
[4] = dose: 50.0 mg/kg/injection, vehicle: saline
[5] = dose: 100.0 mg/kg/injection, vehicle: saline with Tween-80
[6] = dose: 200.0 mg/kg/injection, vehicle: saline with Tween-80
[7] = dose: 400.0 mg/kg/injection, vehicle: saline with Tween-80
[8] = dose: 100.0 mg/kg/injection, vehicle: water
[9] = dose: 200.0 mg/kg/injection, vehicle: water
[10] = dose: 50.0 mg/kg/injection, vehicle: saline with Tween-80
[11] = dose: 50.0 mg/kg/injection, vehicle: Klucel (hydroxypropylcellulose) (HPC)
[12] = dose: 100.0 mg/kg/injection, vehicle: Klucel (hydroxypropylcellulose) (HPC)
[13] = dose: 400.0 mg/kg/injection, vehicle: Klucel (hydroxypropylcellulose) (HPC)
[14] = dose: 100.0 mg/kg/injection, vehicle: saline
[15] = dose: 200.0 mg/kg/injection, vehicle: saline
[16] = dose: 200.0 mg/kg/injection, vehicle: Klucel (hydroxypropylcellulose) (HPC)

CNC(=O)c1cccc2c(Nc3ccc(NS(C)(=O)=O)cc3OC)c3cccc(C)c3nc12
T/C (dose: 6.25 mg/kg/injection, vehicle: water): 60 % of control
T/C (dose: 12.5 mg/kg/injection, vehicle: water): 48 % of control
T/C (dose: 25.0 mg/kg/injection, vehicle: water): 17 % of control
T/C [1]: 4 % of control

Cc1cn(C2CC(F)C(CO)O2)c(=O)[nH]c1=O (configuration not stated)
T/C (dose: 1800.0 mg/kg/injection, vehicle: saline): 103 % of control

O=c1n(CC2CO2)c(=O)n(CC2CO2)n1CC1CO1 (configuration not stated)
T/C (dose: 6.25 mg/kg/injection, vehicle: saline): 72 % of control
T/C [2]: 67 % of control
T/C [3]: 87 % of control
T/C [4]: 31 % of control

S=C(NCNC(=S)c1ccncc1)c1ccncc1
T/C [5]: 70 % of control
T/C [6]: 104 % of control
T/C [7]: 70 % of control
T/C (dose: 800.0 mg/kg/injection, vehicle: saline with Tween-80): 66 % of control

Oc1cccc2ccccc12
T/C [1]: 91 % of control
T/C [8]: 87 % of control
T/C [9]: 76 % of control

Nc1nc(N)c2cc(S(=O)(=O)c3ccccc3)ccc2n1
T/C [10]: 62 % of control
T/C [5]: 45 % of control
T/C [6]: 44 % of control
T/C [7]: 24 % of control

COc1ccc(S(=O)(=O)N=N/C=C2\C=CC=CN2O)cc1OC
T/C [10]: 175 % of control
T/C [5]: 91 % of control
T/C [6]: 166 % of control

ClCCCN1CCN(CCCl)CC1
T/C (dose: 5.0 mg/kg/injection, vehicle: saline): 101 % of control
T/C (dose: 10.0 mg/kg/injection, vehicle: saline): 83 % of control
T/C (dose: 20.0 mg/kg/injection, vehicle: saline): 44 % of control

OCCO
T/C (dose: 1.0 % in 0.5 ml injection vol, vehicle: water): 181 % of control
T/C (dose: 2.0 % in 0.5 ml injection vol, vehicle: water): 160 % of control

COCCCNC1=C(C#N)C(=O)NC(c2cccc([N+](=O)[O-])c2)S1 (configuration not stated)
T/C (dose: 225.0 mg/kg/injection, vehicle: saline with Tween-80): 172 % of control
T/C (dose: 450.0 mg/kg/injection, vehicle: saline with Tween-80): 171 % of control
T/C (dose: 900.0 mg/kg/injection, vehicle: saline with Tween-80): 159 % of control

Cc1ccc(NCCN(C)C)c2c(=O)c3cc(O)ccc3sc12
T/C (dose: 25.0 mg/kg/injection, vehicle: Klucel (hydroxypropylcellulose) (HPC)): 86 % of control
T/C [11]: 90 % of control and 210 % of control
T/C [12]: 67 % of control
T/C [13]: 48 % of control

CO[C@H]1C[C@](C)(O)Cc2cc3c(c(O)c21)C(=O)c1c(O)cc2c(c1C3=O)O[C@@H]1O[C@@]2(C)[C@H](O)[C@@H](N(C)C)[C@@H]1O
T/C (dose: 12.5 mg/kg/injection, vehicle: other): 124 % of control
T/C (dose: 25.0 mg/kg/injection, vehicle: other): 102 % of control
T/C (dose: 50.0 mg/kg/injection, vehicle: other): 56 % of control
T/C (dose: 100.0 mg/kg/injection, vehicle: other): 19 % of control

CCCCCCCCCCCCCCCCCCOCC(COP(=O)([O-])OCC[N+](C)(C)C)OC (configuration not stated)
T/C [2]: 122 % of control
T/C [3]: 119 % of control
T/C [4]: 89 % of control
T/C [14]: 73 % of control

Nc1nc(N)c2c(ccc3c2ccn3Cc2cccc([N+](=O)[O-])c2)n1
T/C (dose: 3.13 mg/kg/injection, vehicle: saline with Tween-80): 61 % of control
T/C (dose: 6.25 mg/kg/injection, vehicle: saline with Tween-80): 102 % of control
T/C (dose: 12.5 mg/kg/injection, vehicle: saline with Tween-80): 85 % of control
T/C (dose: 25.0 mg/kg/injection, vehicle: saline with Tween-80): 57 % of control
T/C [10]: 12 % of control

NC(CCC(=O)NC(CS)C(=O)NCC(=O)O)C(=O)O (configuration not stated)
T/C [4]: 89 % of control
T/C [14]: 87 % of control
T/C [15]: 102 % of control
T/C (dose: 400.0 mg/kg/injection, vehicle: saline): 88 % of control
T/C (dose: 800.0 mg/kg/injection, vehicle: saline): 113 % of control

CC[C@@H](C)[C@@H]1NC(=O)C(NC(=O)C(CC(C)C)N(C)C(=O)C2CCCN2C(=O)C(C)O)C(C)OC(=O)C(Cc2ccc(OC)cc2)N(C)C(=O)C2CCCN2C(=O)C(CC(C)C)NC(=O)C(C)C(=O)C(C(C)C)OC(=O)C[C@H]1O (some centres not stated)
T/C (dose: 600.0 micrograms/kg/injection, vehicle: distilled water + alcohol): 118 % of control

COc1nc(C(Cl)(Cl)Cl)c(Cl)c(OC)c1Cl
T/C [11]: 103 % of control
T/C [12]: 109 % of control
T/C [16]: 104 % of control
T/C [13]: 47 % of control

BrCCC1(CCBr)CCCCC1
T/C [8]: 112 % of control
T/C [9]: 177 % of control
T/C (dose: 400.0 mg/kg/injection, vehicle: water): 95 % of control
T/C (dose: 800.0 mg/kg/injection, vehicle: water): 117 % of control
T/C (dose: 1600.0 mg/kg/injection, vehicle: water): 90 % of control

O=C(COc1cccc2c(=O)cc(-c3ccccc3)oc12)OCCN1CCOCC1
T/C [14]: 81 % of control
T/C [15]: 43 % of control

CC(=O)C(=O)O.CC(=O)C(=O)O.[NH-]C1CCCCC1[NH-].[Pt+2] (configuration not stated)
T/C (dose: 6.25 mg/kg/injection, vehicle: dextrose): 83 % of control
T/C (dose: 12.5 mg/kg/injection, vehicle: dextrose): 31 % of control
T/C (dose: 25.0 mg/kg/injection, vehicle: dextrose): 31 % of control
T/C (dose: 50.0 mg/kg/injection, vehicle: dextrose): 16 % of control

CC(CN1CC(=O)NC(=O)C1)N1CC(=O)NC(=O)C1 (configuration not stated)
T/C [12]: 82 % of control
T/C [16]: 40 % of control
T/C [13]: 2 % of control
T/C (dose: 800.0 mg/kg/injection, vehicle: Klucel (hydroxypropylcellulose) (HPC)): 1 % of control

O=C(Cc1cccc2c(=O)cc(-c3ccccc3)oc12)OCCN1CCOCC1
T/C (dose: 50.0 mg/kg/injection, vehicle: suspension in saline): 70 % of control
T/C (dose: 100.0 mg/kg/injection, vehicle: suspension in saline): 49 % of control
T/C (dose: 200.0 mg/kg/injection, vehicle: suspension in saline): 68 % of control
T/C (dose: 300.0 mg/kg/injection, vehicle: suspension in saline): 17 % of control

COc1cc2c[n+](C)c3c(c2cc1OC)Cc1cc2c(cc1-3)OCO2
T/C [10]: 94 % of control
T/C [5]: 107 % of control
T/C [6]: 97 % of control
T/C [7]: 85 % of control

CCCCCNc1ncnc2c(C)[nH]nc12
T/C [11]: 123 % of control
T/C [12]: 102 % of control
T/C [16]: 77 % of control

NC(=O)C1=CC2C3C=CC2(O)C(=O)OC3O1 (configuration not stated)
T/C (dose: 7.5 mg/kg/injection, vehicle: Klucel (hydroxypropylcellulose) (HPC)): 73 % of control
T/C (dose: 15.0 mg/kg/injection, vehicle: Klucel (hydroxypropylcellulose) (HPC)): 86 % of control
T/C (dose: 30.0 mg/kg/injection, vehicle: Klucel (hydroxypropylcellulose) (HPC)): 112 % of control
